In PubChem BioAssay (NCI):
Several values for one entry are separate records, joined by “and”; a condition that tells them apart may be missing. Equal values may be shown once.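 Exposure lasted 48 hours, with cells grown in 96-well plates and compounds tested at five concentrations. At the GI50, growth is halved. The concentration for full growth arrest is given as TGI.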

Experiments:
Experiment in all cases: growth of human tumour cells (NCI), 48 h
[1] = system: PC-3 prostate
[2] = system: SK-OV-3 ovarian
[3] = system: KM12 colon
[4] = system: A549 NSCLC
[5] = system: NCI-H522 lung
[6] = system: NCI-H460 lung
[7] = system: UACC-62 melanoma
[8] = system: MDA-MB-435
[9] = system: A498 renal
[10] = system: SNB-19 CNS

Structure (SMILES)	GI50 [1] [µM]	TGI [1] [µM]	GI50 [2]	TGI [2] [µM]	GI50 [3]	TGI [3] [µM]	GI50 [4] [µM]	TGI [4] [µM]	GI50 [5]	TGI [5]	GI50 [6]	TGI [6]	GI50 [7]	TGI [7]	GI50 [8] [µM]	TGI [8] [µM]	GI50 [9]	TGI [9]	GI50 [10] [µM]	TGI [10] [µM]
Cc1cc(/C=C\c2ccc3ccccc3[n+]2C)c(O)c2ncccc12	0.855	7.58	1.68 µM	4.84	0.182 µM	1.34	0.564	13.6	1.05 µM	5.02 µM	0.224 µM	1.82 µM	0.207 µM	2.62 µM	0.0875	0.523	0.18 µM	3.01 µM	0.494	27.4
COc1cc2nc(-c3ccc4ccccc4c3)[nH]c(=O)c2cc1OC	–	> 100	–	> 100	–	> 100	–	> 100	–	> 100 µM	–	> 100 µM	–	> 100 µM	–	–	–	> 100 µM	–	97.2
Cc1nc2c3c(ncn2n1)Oc1c(c(-c2ccccc2)nn1-c1ccccc1)C3c1ccc(Cl)cc1 (stereo not drawn)	–	> 100	–	> 100	–	> 100	–	> 100	–	–	–	> 100 µM	–	> 100 µM	–	> 100	–	> 100 µM	–	> 100
CC1OC2=N[C@@H]1C(=O)N[C@@H](C(C)C)C1=N[C@H](C(=O)N[C@@H](C(C)C)C3=N[C@H](C(=O)N[C@@H](C(C)C)C4=N[C@H](C(=O)N[C@H]2C(C)C)C(C)O4)C(C)O3)C(C)O1 (stereo partly drawn)	–	> 10	–	> 10	–	> 10	–	–	–	> 10 µM	–	> 10 µM	–	–	–	> 10	–	> 10 µM	–	> 10
NC(=S)N/N=C\c1ccc(OCc2cccc(COc3ccc(/C=N/NC(N)=S)cc3)n2)cc1	–	> 100	–	> 100	–	> 100	–	> 100	–	> 100 µM	–	> 100 µM	–	–	–	> 100	–	> 100 µM	–	> 100
Cc1ccc(C2=NOC(=O)[C@@H]3CCCC[C@@H]23)cc1	–	> 100	–	> 100	–	> 100	–	–	–	> 100 µM	–	–	–	> 100 µM	–	> 100	–	> 100 µM	–	> 100
O=C(NCc1cccc(C(F)(F)F)c1)c1cc2sccc2nc1C(F)(F)F	–	> 100	–	> 100	–	> 100	–	> 100	–	> 100 µM	–	–	–	> 100 µM	–	> 100	–	–	–	> 100
O=C1NC(=O)/C(=C/c2ccc(S(=O)(=O)N/N=C/c3ccc(Cl)cc3)cc2)N1	–	> 100	–	> 100	–	> 100	–	> 100	–	–	–	> 100 µM	–	> 100 µM	–	> 100	–	> 100 µM	–	> 100
Nc1cccc2c1C(=O)c1cccc(N)c1C2=O	–	–	–	> 100	–	> 100	–	> 100	–	> 100 µM	–	> 100 µM	–	> 100 µM	–	–	–	> 100 µM	–	> 100
CC1(C)OCC(C(O)C2OC(C)(C)OC2C=O)O1 (stereo not drawn)	–	> 100	–	> 100	–	> 100	–	> 100	–	–	–	–	–	> 100 µM	–	> 100	–	> 100 µM	–	> 100
COC1OC(Cc2nnc(C)o2)C(OCc2ccccc2)C(OCc2ccccc2)C1OCc1ccccc1 (stereo not drawn)	–	–	–	> 100	–	42.3	–	> 100	–	52.7 µM	–	87 µM	–	32.3 µM	–	39.2	–	> 100 µM	–	> 100
COc1ccc(N(C)C(=O)N(C)c2ccc([N+](=O)[O-])cc2)cc1	–	–	–	91.5	–	91.6	–	> 100	–	> 100 µM	–	> 100 µM	–	> 100 µM	–	18.6	–	> 100 µM	–	> 100
Cn1nc2n(c1=O)CCCN2	–	> 100	–	–	–	> 100	–	> 100	–	> 100 µM	–	> 100 µM	–	–	–	> 100	–	> 100 µM	–	> 100
CC(=O)/C(=C/n1c(=S)[nH]c2ccccc21)C(=O)Nc1ccccc1C	–	–	–	> 100	–	> 100	–	> 100	–	–	–	> 100 µM	–	–	–	> 100	–	> 100 µM	–	> 100
c1ccc(CCN2CCc3[nH]c4ccccc4c3C2)cc1	–	–	–	> 100	–	34.9	–	62.3	–	–	–	30.9 µM	–	> 10 µM	–	36	–	33.3 µM	–	41.8
COc1cc2c(cc1OCCCC(=O)Nc1cc(C(=O)Nc3cc(C(=O)Nc4cc(C(=O)NCCCN(C)C)n(C)n4)n(C)n3)n(C)n1)N=CC1CCCN1C2=O (stereo not drawn)	–	> 100	–	> 100	–	47	–	> 100	–	–	–	> 100 µM	–	40.6 µM	–	44.9	–	42.8 µM	–	54.4
O=C(CCN1CCCC1)Nc1ccc2sc3ccccc3c(=O)c2n1	–	22.2	–	14.3	–	18.3	–	17.9	–	15.2 µM	–	–	–	17.2 µM	–	17.8	–	33.7 µM	–	19.6
CCOC(=O)C1(C(=O)OCC)[C@H](c2ccccc2)C2=NO[C@@H]3CCC[C@H]1[C@H]23	–	> 100	–	> 100	–	> 100	–	> 100	–	> 100 µM	–	> 100 µM	–	> 100 µM	–	51.5	–	–	–	> 100
Cc1ccccc1-n1c(C)nc2c1C(=O)c1ccccc1C2=O	–	–	–	–	–	> 100	–	> 100	–	68.3 µM	–	> 100 µM	–	> 100 µM	–	–	–	> 100 µM	–	> 100
CC[N+]1(C)CCC(O)(/C=C/c2ccc(OC)cc2)C(C(=O)/C=C/c2ccc(OC)cc2)C1 (stereo not drawn)	–	42.6	–	36.7	–	16.8	–	> 58	–	–	–	> 35.6 µM	–	43.8 µM	–	28.2	–	31.4 µM	–	35.6
[Cl][Pt+2][Cl].[NH-]C1CCCCC1[NH-] (stereo not drawn)	–	–	18.5 µM and > 80.9 µM and 25.1 µM	> 100	80.6 µM and > 72.1 µM and 10.6 µM	> 100	–	> 100	3.31 µM and 5.88 µM and 1.49 µM	20.7 µM and 38.2 µM and 12.4 µM	1.94 µM and 0.903 µM and 0.287 µM	17.9 µM and 36.1 µM and 14 µM	11.7 µM and 10.1 µM and 1.47 µM	43.4 µM and > 100 µM and 17.3 µM	–	–	> 100 µM and 12.6 µM	> 100 µM and 65.3 µM	–	> 100
CCNc1ccc2c(c1)Cc1ccccc1-2	–	> 100	–	–	–	> 100	–	> 100	–	> 100 µM	–	> 100 µM	–	> 100 µM	–	> 100	–	> 100 µM	–	> 100
